This is an account of results in PubChem BioAssay (NCI).

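Assay format: 96-well plates, 48-hour exposure. Here, GI50 denotes the concentration required for 50% inhibition of growth. TGI: total growth inhibition.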 Bounds are passed on as bounds.

Common to all, as to assay: NCI tumour cell line growth inhibition, 48 h
Assay [1] has as its system LOX IMVI melanoma.
Assay [2] relates to HL-60(TB) leukemia.
The subject of assay [3] is ACHN renal.
For assay [4], the system named is NCI-H23 lung.
The test system of assay [5] is MCF7 breast.
Assay [6] deals with MDA-MB-435.
The subject of assay [7] is RXF 393 renal.
Assay [8] deals with HCT-15 colon.
Assay [9] deals with HOP-92 NSCLC.
Assay [10] has as its system NCI/ADR-RES ovarian.

As to `CC(=O)c1c(C)c2cnc(Nc3ccc(N4CCNCC4)cn3)nc2n(C2CCCC2)c1=O`, the GI50 in assay [1] is 1.46 µM; in assay [2] it was 0.638 µM; in assay [3] it was 1.03 µM; in assay [4], 11.1 µM; in assay [5], 0.585 µM; in assay [6], 6.5 µM. Moreover, the GI50 in assay [7] was 2.87 µM; in assay [8] it was 4.41 µM; in assay [9], 0.803 µM; in [10], 16.7 µM. In addition, the TGI in assay [1] came to 19.7 µM; in assay [2], 24.8 µM; in assay [3], 14.7 µM; in assay [4], 27 µM; in assay [5] it was 18.7 µM; in assay [6] it was 22 µM. Further, the TGI in assay [7] is 17.2 µM; in assay [8], 20 µM; in assay [9], 22.8 µM; in assay [10], 33.8 µM.

As for `COC(=O)CC1=C(C)/C(=C/c2[nH]c(-c3ccc[nH]3)cc2OC)N=C1C`, the GI50 in [1] was 0.042 µM; in assay [2], 0.154 µM; in assay [3] it was 0.247 µM; in [4], 0.325 µM; in assay [5], 0.0828 µM; in [6] it was 0.311 µM. The GI50 in assay [7] is 0.0611 µM; in assay [8], 0.0992 µM; in [9], 0.0571 µM; in assay [10] it was 0.324 µM. The TGI is 0.159 µM in [1]; 0.882 µM in assay [2]; 1.29 µM in assay [3]; 3.09 µM in assay [4]; 0.733 µM in assay [5]; 1.95 µM in assay [6]. The TGI in assay [7] turned out to be 1.08 µM; in [8] it was 0.894 µM; in assay [9], 0.337 µM; in assay [10], 2.34 µM.

As to `C=C(C)C(=O)Nc1ccc(-c2c(-c3ccc(Oc4nccc(C)n4)c(F)c3)c3c(N)ncnc3n2C)cc1`, the GI50 in assay [1] is 2.61 µM; in [2], 4.74 µM; in [3], 3.81 µM; in assay [4] it was 4.27 µM; in assay [5], 3.55 µM; in [6], 7.19 µM. The GI50 in assay [7] is 0.0946 µM; in [8] it was 3.11 µM; in assay [9], 2.83 µM; in assay [10], 10.1 µM. Moreover, the TGI in assay [1] was 12.8 µM; in assay [2], greater than 100 µM; in [3] it was 20.2 µM; in assay [4] it was 18.4 µM; in assay [5] it was 16.1 µM; in assay [6], 21.3 µM. The TGI in [7] was 0.984 µM; in assay [8] it was 13.5 µM; in assay [9], 32.3 µM; in assay [10] it was 31 µM.

With `N=C(CC(=O)Nc1ccccn1)c1ccccc1`, the TGI in [1], in assay [2], in [3], in assay [4], in assay [5] and in assay [6] was greater than 100 µM throughout. In addition, the TGI in assay [7], in [8], in assay [9] and in [10] was greater than 100 µM in each case.

Consider `COc1cc(C(=O)n2nc(N)c3c(C)cc(C)nc32)cc(OC)c1OC`, for which the GI50 in assay [1] was greater than 100 µM; in [2], 4.49 µM; in [3] it was greater than 100 µM; in assay [4], greater than 100 µM; in assay [5] it was 10.2 µM; in assay [6] it was 0.325 µM. Besides, the GI50 is 25.3 µM in [7], 1.38 µM in assay [8], greater than 100 µM in assay [9] and 16.3 µM in [10]. For the same molecule, the TGI in assay [1] is greater than 100 µM; in assay [2] it was greater than 100 µM; in assay [3], greater than 100 µM; in assay [4], greater than 100 µM; in [5] it was greater than 100 µM; in assay [6], 6.01 µM. Moreover, the TGI in assay [7], in assay [8], in assay [9] and in assay [10] was greater than 100 µM in each case.

With `CSc1nc2c(c(=O)n1C)C(c1ccccc1)C1=C(N2)/C(=C/c2ccccc2)CCC1` (centres undefined), the GI50 in assay [1] was 3.01 µM; in assay [2] it was 0.721 µM; in [3], 3.56 µM; in [4], 7.1 µM; in [5], 7.72 µM; in assay [6], 3.99 µM. For the same molecule, the GI50 in assay [7] was 2.35 µM; in assay [8] it was 4.1 µM; in assay [9], 36.6 µM; in assay [10], 4.07 µM. The TGI in [1] was 12.8 µM; in assay [2], 48.4 µM; in assay [3] it was 50.5 µM; in assay [4], greater than 100 µM; in assay [5] it was greater than 100 µM; in assay [6], greater than 100 µM. In addition, the TGI was 6.21 µM in [7], greater than 100 µM in assay [8], greater than 100 µM in assay [9] and greater than 100 µM in assay [10].

Consider `FC(F)(F)c1cccc(-c2[nH]ncc2-c2nnnn2-c2ccccc2)c1`, for which the GI50 in assay [1] was 6.41 µM; in assay [2], 3.94 µM; in assay [3] it was 11.2 µM; in assay [4] it was 5.86 µM; in assay [5], 3.3 µM; in assay [6], 1.86 µM. The GI50 is 2.91 µM in [7], 3.71 µM in [8] and 3.17 µM in assay [10]. Moreover, the TGI in assay [1] was determined as 19.5 µM; in [2] it was 8.86 µM; in assay [3], 24.5 µM; in [4], 23.3 µM; in assay [5] it was 13.7 µM; in assay [6], 5.89 µM. The TGI worked out at 11.7 µM in [7], 16.3 µM in assay [8], 8.19 µM in assay [9] and 25.2 µM in assay [10].

Consider `CSc1ccc(C(=O)/C=C/c2ccc(Cl)cc2Cl)cc1`, for which the GI50 in assay [1] is 20 µM; in [2], 18.4 µM; in [3] it was 23.7 µM; in [4], 21.9 µM; in [5], 3.68 µM; in assay [6], 26.3 µM. Further, the GI50 in assay [7] is 16.4 µM; in assay [8], 29.8 µM; in [9], 40.2 µM; in assay [10], 30 µM. Moreover, the TGI in assay [1] was 37 µM; in assay [2], 38.2 µM; in [3], 55.6 µM; in assay [4] it was 57.4 µM; in assay [5] it was 19.8 µM; in assay [6], 88.3 µM. The TGI was 36.2 µM in [7], 97.7 µM in assay [8], greater than 100 µM in [9] and 94.7 µM in [10].
